{"source": "patent US11879140B2", "about": "“P21 mRNA targeting DNAzymes” (1E Therapeutics Ltd., priority 2020, dated 2024)", "key": {"p21 mRNA": {"tested_on": "p21 mRNA", "assay": "Quantitative RT-PCR of p21 mRNA in senescent cells", "assay_type": "cell-based, human", "settings": "over 24 hours following treatment, 2000 nM (FIG. 5D)", "procedure": "Total RNA was extracted from IMR-90 cells using NucleoSpin® RNA (Macherey-Nagel™), according to the manufacturer protocol. Complementary DNA was prepared using the M-MLV Reverse Transcriptase (Promega), according to the manufacturer protocol. Quantitative real-time PCR was performed using the SYBR Green PCR master-mix (Applied Biosystems) on a CFX96 Real-Time PCR System (Bio Rad). See primer sequences in Table 1, above."}, "p21 protein [1]": {"tested_on": "p21 protein", "assay": "Immunofluorescence of p21 protein in senescent cells", "assay_type": "cell-based, human", "settings": "48 hour treatment, 1000 nM, compared to control scramble (FIG. 5G)", "procedure": "48 hours following transfection. IMR-90 cells were fixed by PFA 4% following the indicated treatments. Cells were blocked and incubated with antibodies against human p21 (CST) in blocking solution. Cells were then incubated with Dylight-549-conjugated secondary antibody (Jackson ImmunoResearch) and counterstained with DAPI (Sigma). Images were acquired using Nikon Eclipse Ti2 microscope at ×10 magnification.\n(§1) Alternatively, cells were fixed with 4% Formaldehyde for 15 minutes, permeabilized in 0.2% […] for 5 minutes and blocked with 2% bovine serum albumin (BSA) for 30 min in room temperature. Cells were then incubated with a primary or with a conjugated antibody over-night or for 3 hours respectively. For unconjugated antibodies, a corresponding fluorescently-labelled secondary antibody was added for 1 hour, followed by Hoechst counterstaining. Cells were washed with PBS three times following each step. Images were acquired using Nikon Eclipse Ti2 microscope at ×10 magnification.\n(§2) Antibodies were diluted in blocking solution as indicated below: 53BP1 antibody (Novus biologicals NB100-304, 1:800), Phospho-histone H2AX antibody (Cell signaling #2577, 1:800), p21 Waf1/Cip1 antibody (Cell signaling #8865, 1:500), p16 antibody (Santa Cruz sc-56330, 1:200), Alexa Fluor-488 goat anti mouse (Thermo Fisher A11029, 1:1000)."}, "[2]": {"tested_on": "cancer cell lines (HepG2, A549, Panc1, HCT-116)", "assay": "Chemotherapy and DNAzyme combination, several cancer cell lines", "assay_type": "cell-based", "settings": "therapy induced senescence, viability 72 hours following treatment (FIG. 12F)", "from_the_text": "(§3) PANC-1 cells were maintained in DMEM medium supplemented with 10% fetal bovine serum, 1% penicillin-streptomycin and 1% sodium pyruvate. HCT116 cells were maintained in McCoy's 5A medium supplemented with 10% fetal bovine serum and 1% penicillin-streptomycin. A549 cells were maintained in F-12K Medium supplemented with 10% fetal bovine serum and 1% penicillin-streptomycin. HepG2 cell were maintained Eagle's Minimum Essential Medium, supplemented in 10% fetal bovine serum, 1% penicillin-streptomycin and 1% sodium pyruvate. All cancer cell lines were incubated in 5% C02 at 37° C.\n(§4) Cancer cell lines were seeded in 96 well plates 24 hours before treatment. Chemotherapies were applied at indicated concentrations either alone or as combination with DNAzyme-lipofectamine complex. 72 hours following treatment, cell viability was measured using Prestoblue® reagent. Chemotherapies were diluted in cell medium to the indicated concentrations. 24 hours following seeding, culture medium was replaced with chemotherapy containing medium, immediately followed by transfection of DNAzyme as described above. 72 hours following treatment, cell viability was measured using Prestoblue® reagent.\n(§5) The following chemotherapies were used: Etoposide (Sigma), Palbociclib (Sigma), Doxorubicin (Sigma), Cisplatin (Sigma), ABT-263 (Selleckchem). All compounds were dissolved and stored according to manufacturer instructions."}, "HepG2 cells": {"tested_on": "HepG2 cells", "assay": "Chemotherapy and DNAzyme combination, HepG2", "assay_type": "cell-based", "from_the_text": "as §3, §4, §5"}, "cancer cells (A549)": {"tested_on": "cancer cells (A549)", "assay": "Dose response on A549 cancer cells", "assay_type": "cell-based", "settings": "A549, scramble versus DNAzyme 1670 (FIG. 16B)", "from_the_text": "as §3, §4"}, "p21 protein [3]": {"tested_on": "p21 protein", "assay": "p21 protein staining in HepG2 cells", "assay_type": "cell-based, human", "settings": "Etoposide alone or together with DNAzyme (FIGS. 15A-B)", "procedure": "as §1, §2"}, "p21 protein [4]": {"tested_on": "p21 protein", "assay": "p21 protein in HepG2 cell lysate (IF and ELISA)", "assay_type": "cell-based, human", "settings": "Etoposide alone or with scramble or DNAzyme 1670 (FIGS. 15B-C)", "procedure": "p21 protein quantification was analyzed using (Human p21 ELISA Kit—ab214658, Abcam), according to the manufacturer's instructions. The cell pellets were incubated with Cell Extraction Buffer PTR on ice for 20 minutes. Following Centrifuge at 18,000×g for 20 minutes, the sample protein concentrations were quantified using a BCA protein assay. The samples and Antibody Cocktail were added to appropriate wells and incubated for one hour at room temperature (RT), followed by three washes with Wash Buffer and incubation with TMB Development Solution for 15 minutes at RT. Then, the Stop Solution was added, the samples were incubated for 1 minute, and the samples were read by absorbance at 450 nm using plate reader."}, "[5]": {"assay": "DNAzyme stability analysis in serum", "assay_type": "in vitro ADME", "procedure": "(§6) DNAzyme stability was assessed by incubation with PBS, plasma and BALF (Bronchoalveolar Lavage Fluid). A comparison between unmodified and 3′Inverted dT modification was made. Following incubation for the indicated time points, samples were analyzed using gel electrophoresis. Quantification compared to time 0 was performed using Image Lab software (Bio Rad)."}, "[6]": {"assay": "DNAzyme stability analysis in BALF", "assay_type": "in vitro ADME, mice", "procedure": "as §6"}, "[7]": {"settings": "unmodified DNAzyme, from the start of incubation (FIG. 13A)"}}, "note": "Entries after “also recorded” stand apart in the source; their conditions may differ."}
{"substance": "DNAzyme 1670: SEQ ID NO: 54: GGGAAAGGAggctagctacaacgaAAGGGGGAG (DNA GGGAAAGGAGGCTAGCTACAACGAAAGGGGGAG; DNA, backbone and methylation of C not given here)", "values": [{"measurement": "p21 mRNA knockdown", "setting": "p21 mRNA", "value": 57, "unit": "%"}, {"measurement": "p21 protein levels", "setting": "p21 protein [1]", "value": "significantly reduced"}, {"measurement": "efficacy of sub-clinical Etoposide in combination with DNAzyme", "setting": "[2]", "value": "comparable to that of clinical Etoposide dose"}, {"measurement": "sub-clinical doses of various chemotherapies in combination with DNAzyme, synergy", "setting": "HepG2 cells; HepG2 (FIG. 12G)", "value": "synergistic activity"}, {"measurement": "combination treatment of Etoposide and DNAzyme, synergy", "setting": "HepG2 cells; liver cancer cell line HepG2 (FIG. 12F)", "value": "good synergistic results"}, {"measurement": "senolytic effect, dose response", "setting": "cancer cells (A549)", "value": "senolytic effect in a wide range of doses; also recorded: effective at much lower concentration"}, {"measurement": "p21 protein immunofluorescent staining in HepG2 cells", "setting": "p21 protein [3]", "value": "significant decrease in staining; also recorded: p21 upregulation is blocked"}, {"measurement": "p21 protein in cell lysate", "setting": "p21 protein [4]", "value": "can counteract the upregulation in p21 levels"}, {"measurement": "time to complete degradation in serum", "setting": "[5]; [7]", "value": 48, "unit": "h"}, {"measurement": "time to degradation in serum", "setting": "[5]; with 3′ inverted dT modification versus unmodified (FIG. 13B)", "value": "significantly increased"}, {"measurement": "stability in BALF of diseased (bleomycin) mice compared to naive BALF", "setting": "[6]; FIG. 13C", "value": "lower"}, {"measurement": "start of reduction in size (below full length) in BALF", "setting": "[6]; [7]", "value": 24, "unit": "h"}, {"measurement": "time to degradation / stability in BALF", "setting": "[6]; with 3′ inverted dT modification versus unmodified (FIGS. 7B, 13C)", "value": "significantly increased"}]}
